# Results as given in patent US20220023306A1, “USE OF A PPAR-DELTA AGONIST IN THE TREATMENT OF FATTY ACID OXIDATION DISORDERS (FAOD)” (Reneo Pharmaceuticals, Inc., priority 2019, published 2022).
# How the values were obtained:
# [1] = test system: PPARδ regulated genes (CPT1b, PGC1α); test: expression of PPARδ regulated genes in vivo
# subjects with FAOD = test: FAOD clinical trial with Compound 1; format: in vivo, human
# Method: In some embodiments, outcome measures are assessed with tests that assess exercise tolerance. In some embodiments, exercise tolerance is assessed with exercise tests. Exercise tests include, but are not limited to, submaximal treadmill, walking tests (e.g. without limitation, 6 minute; 12 minute walks), run tests, treadmill and ergometry exercise testing. In some embodiments, exercise tests are used in combination with the Borg Scale of perceived exertion. In some embodiments, exercise tests are performed according to guidelines set forth by the American Thoracic Society (ATS).
# In some embodiments, stable isotope methods are used to measure in vivo residual fatty acid oxidation capacity. Enrichment of ^13CO2 only occurs by one complete round of fatty acid oxidation. A representative protocol is as follows. A fasting blood sample is obtained after an overnight fast. Prior to breakfast, a resting indirect calorimetry is measured. Subjects are then given a meal (e.g a shake) containing 17-mg/kg ^13C-oleic acid. Breath samples are collected prior to (time 0) and again hourly at 1, 2, 3, 4, 5, 6, 7, and 8 hours following the ^13C-oleic administration. ^13C in breath samples are measured as a ratio of ^13C/^12C using the Delta Plus IRMS (Finnigan MAT, Bremen, Germany). Recovery is calculated as ^13C divided by the dose of ^13C administered. The amount of excess ^13C in breath is a measure of residual fatty acid oxidation capacity in subjects with disorders of long-chain fatty acid oxidation.
# In some embodiments, improvements in fatty acid oxidation in subjects with a FAOD that are treated with a PPARδ agonist compound described herein (e.g. Compound 1, or a pharmaceutically acceptable salt thereof) are measured with a suitable ^13CO2 breath sample test. In some embodiments, a suitable ^13CO2 breath sample test comprises the steps of: 1) providing the subject a meal comprising ^13C-enriched fatty acid(s); 2) administering to the subject a PPARδ agonist compound, or a pharmaceutically acceptable salt thereof, after the consumption of the meal; and 3) collecting breath samples from the subject at regular intervals and measuring the relative amount of ^13CO2 to ^12CO2 in the breath samples. In some embodiments, the breath samples are collected about every hour. In some embodiments, the meal is enriched with a 13C labeled fatty acid, wherein the fatty acid is butyric acid, caproic acid, caprylic acid, capric acid, lauric acid, myristic acid, palmitic acid, stearic acid, arachidic acid, behenic acid, lignoceric acid, caproleic acid, lauroleic acid, myristoleic acid, palmitoleic acid, oleic acid, elaidic acid, vaccenic acid, gadoleic acid, erucic acid, brassidic acid, nervonic acid, linoleic acid, alpha-linolenic acid, gamma-linolenic acid, columbinic acid, stearidonic acid, mead acid, dihomo-γ-linolenic acid, arachidonic acid, eicosapentaenoic acid, docosapentaenoic acid, or docosahexaenoic acid.
# A non-limiting example of a fatty acid oxidation disorder (FAOD) clinical trial in humans is described below. […]
smiles,measurement,setting,value
"Cc1cc(OC/C=C(/c2ccc(F)cc2)c2ccc(C#CCN3CCOCC3)cc2)ccc1OCC(=O)O [Compound 1, (E)-[4-[3-(4-Fluorophenyl)-3-[4-[3-(morpholin-4-yl)propynyl]phenyl]allyloxy]-2-methyl-phenoxy]acetic acid]",expression pattern of CPT1b (fatty acid metabolism),[1],altered the expression patterns
same,expression pattern of PGC1α (mitochondrial biogenesis),[1],altered the expression patterns
same,exercise capacity,subjects with FAOD; 50 mg once daily for 12 weeks,Improvements
same,exhaled 13CO2,subjects with FAOD; 50 mg once daily for 12 weeks,trend towards increases
same,heart rate during the last ten minutes of exercise,subjects with FAOD; 50 mg once daily for 12 weeks,decreases
same,distance walked during a 12-minute walk test,"subjects with FAOD; 50 mg once daily for 12 weeks, FIG. 1",increase
same,tolerability,subjects with FAOD; subjects that participated in the study,well tolerated
